In patent US8153561B2, “Limonene-containing herbicide compositions, herbicide concentrate formulations and methods for making and using same for organic production” (Cutting Edge Formulations, Inc., priority 2005, dated 2012) one finds effects first observed data, which are given here for one molecule.

The test relates to common lambsquarters. Briefly: Field trial Zellwood, Fla.: damage rating on common lambsquarters, sprayed until runoff. The test is classed as in vivo. The following applies: commercial burn down standard; improved by Day 3. As to the method: FIG. 7 is a bar graph setting forth results from a field study on lambsquarters conducted in Florida in January of 2005. Ratings are based on 0 to 10 (no damage to dead). Statistical analysis is by Duncan's MRT (P<0.05).
A field trial was conducted in Zellwood, Fla. The same formulation described in Example 1 was used in the Florida trial. All limonene treatments were made at a 3:1 ratio by volume, represented as water:herbicide formulation ratio, to provide a herbicide composition of 22% limonene (w/w %). Four reps per treatment were used; all treatments were randomly distributed within a rep. The weed species was common lambsquarters (1 to 2 feet in height). Treatments applied were pH 3, 7, 8 and 9 with and without a silicone surfactant, Silwet; each treatment was sprayed until runoff. The commercial burn down standard, Gramoxone (Paraquat) was included. Readings were taken at 1 and 2 hours, and 1, 3 and 7 days. […] Effects with Gramoxone (Paraquat) were first observed on day 1 and improved by Day 3. After the first 2 hours limonene effects were stabilized.

As to `C[n+]1ccc(-c2cc[n+](C)cc2)cc1` [Gramoxone, Paraquat], the effects first observed is 1 days.
